The values below come from US12729458B2, “Discovery and evolution of biologically active metabolites” (The Regents of the University of Colorado, a Body Corporate, priority 2020, dated 2026).

The structures appear in SMILES notation. Entries after “also recorded” stand apart in the source; their conditions may differ. Read-outs that look alike come from different tables or passages of the source.

For experiment [1], the system named is insulin receptor (IR) phosphorylation (PTP1B-mediated) in HEK293T/17 cells. The experiment in a line: ELISA of insulin receptor (IR) phosphorylation in HEK293T/17 cells. Type of experiment: cell-based. To be noted: for IR phosphorylation (ELISA signal): 3% DMSO, 10 minutes, starved HEK293T/17 cells, vs 3% DMSO control; for Δμ, null hypothesis compound-(−) = 0: difference of means vs negative control (−). The text has this:
Analysis of PTP1B inhibition in HEK293TCells. We prepared HEK293T/17 cells for an enzyme-linked immunosorbent assay (ELISA) by growing them in 75 cm^2 culture flasks (Corning) with DMEM media supplemented with 10% FBS, 100 units/ml penicillin, and 100 units/ml streptomycin. We replaced the media every day for 3-5 days until the cells reached 80-100% confluency.
We measured the influence of inhibitors on insulin receptor (IR) phosphorylation by using an IR-specific ELISA (FIG. 35). Briefly, we starved cells for 48 hours in FBS-free media and incubated the with inhibitors (all at 3% DMSO) for 10 minutes. After incubation, we lysed cells with lysis buffer (9803, Cell Signaling Technology) supplemented with 1× halt phosphatase inhibitor cocktail and 1× halt protease inhibitor cocktail (Thermo Fisher Scientific) for 10 min, pelleted the cell debris, and used the lysis buffer to dilute each sample to 60 mg/ml total protein. We measured IR phosphorylation in subsequent dilutions of the 60 mg/ml samples with the PathScan® Phospho-Insulin Receptor β (panTyr) Sandwich ELISA Kit (Cell Signaling Technology; #7082).
Statistical analysis and reproducibility. We determined statistical significance (FIG. 23H) with a two-tailed Student's t-test (details in TABLE 14), and we used an F-test to compare one- and two-parameter models of inhibition (TABLE 12).
(In general: In an ELISA, binding on a coated surface is turned into a signal by an enzyme label.)

Experiment [2] deals with T1, PTP1B (Homo sapiens, UniProt P18031).
T1 construct: In this study, we used a well-studied truncation variant (i.e., PTP1B1-321); His-tag; made in house; host or cells: E. coli BL21 (DE3), pET21b
T1 sequence (P18031 1-321): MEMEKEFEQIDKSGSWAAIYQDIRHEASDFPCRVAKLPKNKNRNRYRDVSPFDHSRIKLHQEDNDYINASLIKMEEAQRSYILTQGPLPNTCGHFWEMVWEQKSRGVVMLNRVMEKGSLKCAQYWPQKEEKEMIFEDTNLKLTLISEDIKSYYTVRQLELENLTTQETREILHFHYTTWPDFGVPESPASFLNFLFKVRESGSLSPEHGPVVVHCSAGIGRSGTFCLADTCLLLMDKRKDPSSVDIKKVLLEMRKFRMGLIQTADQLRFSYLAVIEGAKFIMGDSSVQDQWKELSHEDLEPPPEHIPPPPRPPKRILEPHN
Type of experiment: cell-based, H. sapiens. To be noted: terpenoid produced in the cell by its metabolic pathway.

Experiment [3] addresses T2, PTP1B (PTP1B1-321) (Homo sapiens, UniProt P18031).
T2 construct: His-tag; made in house; host or cells: E. coli BL21 (DE3), pET21b
T2 sequence (P18031 1-321): T1 sequence (P18031 1-321)
Kind of experiment: PTP1B-catalyzed hydrolysis of pNPP in the presence of terpenoids (enzyme kinetics, IC50 from best-fit models). It counts as biochemical, H. sapiens. The conditions noted are these: for IC50: 15 mM pNPP, 10% DMSO; for Ki: PTP1B1-321. The procedure: Enzyme kinetics. To examine terpenoid-mediated inhibition, PTP1B-catalyzed hydrolysis of p-nitrophenyl phosphate (pNPP) was measured in the presence of various concentrations of terpenoids. Each reaction included PTP1B ([…]), pNPP (0.33, 0.67, 2, 5, 10, and 15 mM), inhibitors (110 μM, 50 μM, and 15 μM for amorphadiene; 100 μM, 50 μM, and 16.7 μM for taxadiene), and buffer (50 mM HEPES pH=7.5, 0.5 mM TCEP, 50 μg/ml BSA, 10% DMSO). The formation of p-nitrophenol was monitored by measuring absorbance at 405 nm every 10 seconds for 5 minutes on a Spectramax M2 plate reader.
Kinetic models were evaluated in three steps: (i) Initial-rate measurements collected in the absence and presence of inhibitors were fitted to Michaelis-Menten and inhibition models, respectively (here, the nlinfit and fminsearch functions from MATLAB were used). (ii) An F-test was used to compare the mixed model to the single-parameter model with the least sum squared error (here, the fcdf function from MATLAB was used to assign p-values), and the mixed model was accepted when p<0.05.
The MATLAB function “nlparci” was used to determine the confidence intervals of kinetic parameters, and those intervals were propagated to estimate corresponding confidence on IC50's.
Enzyme kinetics. To examine terpenoid-mediated inhibition, we measured PTP-catalyzed hydrolysis of p-nitrophenyl phosphate (pNPP) or 4-methylumbelliferyl phosphate (4-MUP, used when KM for pNPP was large) in the presence of various concentrations of terpenoids. Each reaction included PTP (0.05 μM PTP1B/TCPTP or 0.1 μM SHP1/SHP2 in 50 mM HEPES, 0.5 mM TCEP, 50 μg/ml BSA), pNPP (0.33, 0.67, 2, 5, 10, and 15 mM) or 4-MUP (0.13, 0.27, 0.8, 2.27, 2.93, 4.53, 7.07, and 8 mM), inhibitor (with concentrations listed in the figures), buffer (50 mM HEPES pH=7.3, 50 μg/ml BSA), and DMSO at 10% v/v. We monitored the formation of p-nitrophenol by measuring absorbance at 405 nm every 10 seconds for 5 minutes on a SpectraMax M2 plate reader and the formation of 4-methylumbelliferyl by measuring fluorescence at 450 nm (370 nm ex, 435 nm cutoff, medium gain).
We used a custom MATLAB script to process all raw kinetic data. This script removed all concentration values that fell outside of either (i) the range of our standard curve (absorbance/fluorescence vs. μM; FIG. 39) or (ii) the initial rate regime (>10% of the pNPP or 4-MUP concentration used in the assay). When this step reduced kinetic dataset to fewer than ten points, we re-measured those datasets to collect at least ten. We fit final datasets, in turn, with a linear regression model (using Matlab's backslash operator).
We evaluated kinetic models in three steps: (i) We fit initial-rate measurements collected in the absence and presence of inhibitors to Michaelis-Menten and inhibition models, respectively (here, we used the nlinfit and fminsearch functions from MATLAB; TABLE 12). (ii) We used an F-test to compare the mixed model to the single-parameter model with the least sum squared error (here, we used the fedf function from MATLAB to assign p-values), and we accepted the mixed model when p<0.05.

[4] abbreviates: FIG. 3h, t-test, unequal variance.
Where [5] appears, read: Example 2, HEPES pH 7.3, ± 95% confidence interval.
Setting [6] is: competitive model of inhibition, read-out: Fit par. Ki, competitive model.
The mark [7] stands for this setting: mixed model, competitive constant, read-out: Fit par. Ki,c, mixed model.
[8] abbreviates: mixed model, uncompetitive constant, read-out: Fit par. Ki,u, mixed model.
Where [9] appears, read: noncompetitive model of inhibition, read-out: Fit par. Ki, noncompetitive model.
[10] abbreviates: uncompetitive model of inhibition, read-out: Fit par. Ki, uncompetitive model.

The IC50 is the midpoint of a concentration-inhibition curve. As usually defined, the Ki is a dissociation constant, usually derived from enzyme kinetics or from competition with a known ligand.

Turning to `C=C(C)[C@@H]1CC[C@@H](C)[C@@H]2CCC(C)=C[C@@H]21` [amorphadiene], the “IR phosphorylation (ELISA signal)” value is listed as “inhibit PTP1B inside of a HEK293T/17 cell; also recorded: can increase IR phosphorylation over a negative control” in experiment [1] (930 μM); “increased IR phosphorylation over a negative control” in experiment [1] (930 μM, listed as AD); “stimulate IR phosphorylation” in experiment [1] (930 μM, listed as Amorphadiene). In addition, the “Δμ, null hypothesis AD-DHA = 0” value in experiment [1] (difference of means AD vs DHA, FIG. 3h, t-test, unequal variance) turned out to be 0.124. Besides, the “Δμ, null hypothesis compound-(−) = 0” value in experiment [1] (setting [4]) came out at 0.212. In addition, the “survival of E. coli with PTP1B B2H system on spectinomycin” value in experiment [2] is recorded as “permitted survival at high concentrations of antibiotic”. Also, the IC50 in experiment [3] (Example 1, HEPES pH 7.5) is roughly 53 µM; in experiment [3] (setting [5]) it was 53 ± 8 µM. In addition, the inhibition constant Ki in experiment [3] (setting [6]) turned out to be 2.85 µM; in experiment [3] (setting [7]), 86.2 µM; in experiment [3] (setting [8]) it was 50.1 µM; in experiment [3] (setting [9]) it was 52.6 µM; in experiment [3] (setting [10]) it was 46.3 µM. In addition, the “simultaneous binding with TCS401 (Dixon plot)” value in experiment [3] (Vo^−1 vs. [TCS401] at various concentrations of AD) is reported as “cannot bind simultaneously”. Besides, the “simultaneous binding with orthovanadate (Dixon plot)” value in experiment [3] (Vo^−1 vs. [orthovanadate] at various concentrations of AD) is on record as “can bind simultaneously”. The “model (mode) of PTP1B inhibition from Michaelis-Menten fits” value in experiment [3] (pNPP initial rates) was “noncompetitive or uncompetitive inhibition; also recorded: noncompetitive inhibition”.
`CC(C)=CCC=C(C)C1CC=C(C)CC1` (stereo not drawn) [α-bisabolene]: the “IR phosphorylation (ELISA signal)” value is given as “stimulate IR phosphorylation; also recorded: can increase IR phosphorylation over a negative control” in experiment [1] (405 μM) and “increased IR phosphorylation over a negative control” in experiment [1] (405 μM, listed as AB). The “Δμ, null hypothesis AB-ABOL = 0” value in experiment [1] (difference of means AB vs ABOL, FIG. 3h, t-test, unequal variance) turned out to be 0.309. In experiment [1] (setting [4]), the “Δμ, null hypothesis compound-(−) = 0” value is on record as 0.310. Moreover, the “survival of E. coli with PTP1B B2H system on spectinomycin” value in experiment [2] was “permitted survival at high concentrations of antibiotic”. Further, the IC50 is roughly 20 µM in experiment [3] (Example 1, HEPES pH 7.5) and 13 ± 2 µM in experiment [3] (setting [5]). Besides, the Ki in experiment [3] (setting [6]) was determined as 1.05 µM; in experiment [3] (setting [7]), 9.51 µM; in experiment [3] (setting [8]), 13.7 µM; in experiment [3] (setting [9]), 13.1 µM; in experiment [3] (setting [10]) it was 11.7 µM.
